Results as given in US20110105509A1 (Wyeth, LLC, priority 2009, published 2011).

target: T1, CRTH2 (Homo sapiens, UniProt Q9Y5Y4); assay: FRET based competitive immunoassay (cAMP) in CRTH2 expressing CHO cells; format: cell-based; details: CRTH2 expressing CHO cells incubated with forskolin and PGD2; Eu3+ cryptate-labeled anti-cAMP and d2-labeled cAMP
T1 construct: expressed in transfected cells; host or cells: CHO cells
T1 sequence (Q9Y5Y4 1-395): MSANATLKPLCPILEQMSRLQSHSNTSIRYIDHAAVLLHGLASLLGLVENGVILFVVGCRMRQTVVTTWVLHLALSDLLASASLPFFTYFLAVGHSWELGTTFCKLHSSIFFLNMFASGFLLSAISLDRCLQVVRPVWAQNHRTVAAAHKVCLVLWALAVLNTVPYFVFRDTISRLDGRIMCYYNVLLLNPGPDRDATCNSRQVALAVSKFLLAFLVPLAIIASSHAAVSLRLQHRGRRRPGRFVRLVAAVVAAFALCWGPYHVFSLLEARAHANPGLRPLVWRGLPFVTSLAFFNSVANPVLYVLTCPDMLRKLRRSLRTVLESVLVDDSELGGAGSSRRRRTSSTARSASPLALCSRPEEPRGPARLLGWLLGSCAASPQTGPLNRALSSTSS
Protocol: FRET Assay: To evaluate potency compounds were tested in a FRET based competitive immunoassay in which CRTH2 expressing CHO cells were incubated in the presence of forskolin and PGD2 along with Eu3+ cryptate-labeled anti-cAMP and d2-labeled cAMP.

Row | IC50 [nM] | SMILES
1 | > 2000 | Cc1c(-c2nn(Cc3ccccc3)c(=O)c3ccccc23)c2ccccc2n1Cc1nn[nH]n1 [Example 51, 4-(1-((2H-Tetrazol-5-yl)methyl)-2-methyl-1H-indol-3-yl)-2-benzyl-phthalazin-1(2H)-one]
2 | > 2000 | Cc1c(-c2nn(Cc3ccccc3)c(=O)c3ccccc23)c2ccccc2n1CCO [Example 52, 2-Benzyl-4-(1-(2-hydroxyethyl)-2-methyl-1H-indol-3-yl)phthalazin-1(2H)-one]
3 | 55 | Cc1c(Cc2ccc(=O)n(CC(F)(F)F)c2)c2cc(Cl)ccc2n1CC(=O)O [Example 53, 2-(5-Chloro-2-methyl-3-((6-oxo-1-(2,2,2-trifluoroethyl)-1,6-dihydropyridin-3-yl)methyl)-1H-indol-1-yl)acetic acid]
4 | 329 | Cc1c(Cc2ccc(=O)n(CCCC(F)(F)F)c2)c2cc(F)ccc2n1CC(=O)O [Example 54, 2-(5-Fluoro-2-methyl-3-((6-oxo-1-(4,4,4-trifluorobutyl)-1,6-dihydropyridin-3-yl)methyl)-1H-indol-1-yl)acetic acid]
5 | > 2000 | CC(=O)Nc1cccc2c1c(Cc1ccc(=O)n(Cc3ccc(F)cc3F)n1)c(C)n2CC(=O)O [Example 55, 2-(4-Acetamido-3-((1-(2,4-difluorobenzyl)-6-oxo-1,6-dihydropyridazin-3-yl)-methyl)-2-methyl-1H-indol-1-yl)acetic acid]
6 | 5 | Cc1c(CC2=NN(Cc3ccc(F)cc3F)C(=O)CC2)c2cc(F)ccc2n1CC(=O)O [Example 56, 2-(3-((1-(2,4-Difluorobenzyl)-6-oxo-1,4,5,6-tetrahydropyridazin-3-yl)methyl)-5-fluoro-2-methyl-1H-indol-1-yl)acetic acid]
7 | 5 | Cc1c(CC2=NN(CC(F)(F)F)C(=O)CC2)c2cc(F)ccc2n1CC(=O)O [Example 57, 2-(5-Fluoro-2-methyl-3-((6-oxo-1-(2,2,2-trifluoroethyl)-1,4,5,6-tetrahydropyridazin-3-yl)-methyl)-1H-indol-1-yl)acetic acid]
8 | 18 | Cc1c(CC2=NN(CCCC(F)(F)F)C(=O)CC2)c2cc(F)ccc2n1CC(=O)O [Example 58, 2-(5-Fluoro-2-methyl-3-((6-oxo-1-(4,4,4-trifluorobutyl)-1,4,5,6-tetrahydro-pyridazin-3-yl)methyl)-1H-indol-1-yl)acetic acid]
9 | 12 | Cc1c(-c2nn(Cc3cc(F)ccc3F)c(=O)c3ccccc23)c2cc(Cl)ccc2n1CC(=O)O [Example 59, 2-(5-Chloro-3-(3-(2,5-difluorobenzyl)-4-oxo-3,4-dihydrophthalazin-1-yl)-2-methyl-1H-indol-1-yl)acetic acid]
10 | 11 | Cc1c(-c2nn(Cc3cc(F)c(F)cc3F)c(=O)c3ccccc23)c2cc(Cl)ccc2n1CC(=O)O [Example 60, 2-(5-chloro-2-methyl-3-(4-oxo-3-(2,4,5-trifluorobenzyl)-3,4-dihydro-phthalazin-1-yl)-1H-indol-1-yl)acetic acid]
11 | 11 | Cc1c(-c2nn(Cc3ccc(F)cc3F)c(=O)c3ccccc23)c2cc(Cl)ccc2n1CC(=O)O [Example 61, 2-(5-chloro-3-(3-(2,4-difluorobenzyl)-4-oxo-3,4-dihydrophthalazin-1-yl)-2-methyl-1H-indol-1-yl)acetic acid]
12 | 9 | Cc1c(-c2nn(Cc3cc(F)ccc3F)c(=O)c3ccccc23)c2cc(F)ccc2n1CC(=O)O [Example 62, 2-(3-(3-(2,5-difluorobenzyl)-4-oxo-3,4-dihydrophthalazin-1-yl)-5-fluoro-2-methyl-1H-indol-1-yl)acetic acid]
13 | 15 | Cc1c(-c2nn(Cc3cc(F)c(F)cc3F)c(=O)c3ccccc23)c2cc(F)ccc2n1CC(=O)O [Example 63, 2-(5-fluoro-2-methyl-3-(4-oxo-3-(2,4,5-trifluorobenzyl)-3,4-dihydro-phthalazin-1-yl)-1H-indol-1-yl)acetic acid]
14 | 9 | Cc1c(-c2nn(Cc3ccc(F)cc3F)c(=O)c3ccccc23)c2cc(F)ccc2n1CC(=O)O [Example 64, 2-(3-(3-(2,4-difluorobenzyl)-4-oxo-3,4-dihydrophthalazin-1-yl)-5-fluoro-2-methyl-1H-indol-1-yl)acetic acid]
15 | 18 | Cc1c(-c2nn(Cc3ccc(S(C)(=O)=O)cc3)c(=O)c3ccccc23)c2cc(F)ccc2n1CC(=O)O [Example 65, 2-(5-fluoro-2-methyl-3-(3-(4-(methylsulfonyl)benzyl)-4-oxo-3,4-dihydro-phthalazin-1-yl)-1H-indol-1-yl)acetic acid]
16 | 143 | Cc1c(-c2ccc(=O)n(Cc3ccc(S(C)(=O)=O)cc3)n2)c2cc(Cl)ccc2n1CC(=O)O [Example 66, 2-(5-chloro-2-methyl-3-(1-(4-(methylsulfonyl)benzyl)-6-oxo-1,6-dihydropyridazin-3-yl)-1H-indol-1-yl)acetic acid]

Row | IC50 [nM] | SMILES
17 | 23 | Cc1c(-c2ccc(=O)n(Cc3cc(F)ccc3F)n2)c2cc(Cl)ccc2n1CC(=O)O [Example 67, 2-(5-chloro-3-(1-(2,5-difluorobenzyl)-6-oxo-1,6-dihydropyridazin-3-yl)-2-methyl-1H-indol-1-yl)acetic acid]
18 | 10 | Cc1c(-c2ccc(=O)n(Cc3ccc(F)cc3F)n2)c2cc(Cl)ccc2n1CC(=O)O [Example 68, 2-(5-chloro-3-(1-(2,4-difluorobenzyl)-6-oxo-1,6-dihydropyridazin-3-yl)-2-methyl-1H-indol-1-yl)acetic acid]
19 | 7 | Cc1c(-c2ccc(=O)n(Cc3cc(F)c(F)cc3F)n2)c2cc(Cl)ccc2n1CC(=O)O [Example 69, 2-(5-chloro-2-methyl-3-(6-oxo-1-(2,4,5-trifluorobenzyl)-1,6-dihydropyridazin-3-yl)-1H-indol-1-yl)acetic acid]
20 | 16 | Cc1c(-c2ccc(=O)n(Cc3cc(F)c(F)cc3F)n2)c2cc(F)ccc2n1CC(=O)O [Example 70, 2-(5-fluoro-2-methyl-3-(6-oxo-1-(2,4,5-trifluorobenzyl)-1,6-dihydro-pyridazin-3-yl)-1H-indol-1-yl)acetic acid]
21 | 17 | Cc1c(-c2ccc(=O)n(Cc3ccc(F)cc3F)n2)c2cc(F)ccc2n1CC(=O)O [Example 71, 2-(3-(1-(2,4-difluorobenzyl)-6-oxo-1,6-dihydropyridazin-3-yl)-5-fluoro-2-methyl-1H-indol-1-yl)acetic acid]
22 | 43 | Cc1c(-c2ccc(=O)n(Cc3cc(F)ccc3F)n2)c2cc(F)ccc2n1CC(=O)O [Example 72, 2-(3-(1-(2,5-Difluorobenzyl)-6-oxo-1,6-dihydropyridazin-3-yl)-5-fluoro-2-methyl-1H-indol-1-yl)acetic acid]
23 | 76 | Cc1c(-c2ccc(=O)n(Cc3ccc(S(C)(=O)=O)cc3)n2)c2cc(F)ccc2n1CC(=O)O [Example 73, 2-(5-fluoro-2-methyl-3-(1-(4-(methylsulfonyl)benzyl)-6-oxo-1,6-dihydro-pyridazin-3-yl)-1H-indol-1-yl)acetic acid]
24 | 2 | Cc1c(Cc2ccc(=O)n(Cc3ccccc3F)n2)c2ccccc2n1CC(=O)O [Example 74, 2-(3-((1-(2-fluorobenzyl)-6-oxo-1,6-dihydropyridazin-3-yl)methyl)-2-methyl-1H-indol-1-yl)acetic acid]
25 | 101 | Cc1c(Cc2ccc(=O)n(Cc3cccc(F)c3)n2)c2ccccc2n1CC(=O)O [Example 75, 2-(3-((1-(3-fluorobenzyl)-6-oxo-1,6-dihydropyridazin-3-yl)methyl)-2-methyl-1H-indol-1-yl)acetic acid]
26 | 16 | Cc1c(Cc2ccc(=O)n(Cc3ccc(F)cc3)n2)c2ccccc2n1CC(=O)O [Example 76, 2-(3-((1-(4-fluorobenzyl)-6-oxo-1,6-dihydropyridazin-3-yl)methyl)-2-methyl-1H-indol-1-yl)acetic acid]
27 | 32 | Cc1c(Cc2ccc(=O)n(Cc3ccccc3)n2)c2ccccc2n1CC(=O)O [Example 77, 2-(3-((1-Benzyl-6-oxo-1,6-dihydropyridazin-3-yl)methyl)-2-methyl-1H-indol-1-yl)acetic acid]
28 | 2 | Cc1c(CC2=NN(Cc3ccccc3)C(=O)CC2)c2cc(F)ccc2n1CC(=O)O [Example 78, 2-(3-((1-Benzyl-6-oxo-1,4,5,6-tetrahydropyridazin-3-yl)methyl)-5-fluoro-2-methyl-1H-indol-1-yl)acetic acid]
29 | 22 | Cc1c(Cc2ccc(=O)n(Cc3cccc(F)c3F)n2)c2ccccc2n1CC(=O)O [Example 79, 2-(3-((1-(2,3-difluorobenzyl)-6-oxo-1,6-dihydropyridazin-3-yl)methyl)-2-methyl-1H-indol-1-yl)acetic acid]
30 | 16 | Cc1c(Cc2ccc(=O)n(Cc3ccccc3)n2)c2cc(Cl)ccc2n1CC(=O)O [Example 80, 2-(3-((1-Benzyl-6-oxo-1,6-dihydropyridazin-3-yl)methyl)-5-chloro-2-methyl-1H-indol-1-yl)acetic acid]
31 | 23 | Cc1c(Cc2ccc(=O)n(Cc3ccc(C(F)(F)F)cc3)n2)c2cc(Cl)ccc2n1CC(=O)O [Example 81, 2-(5-Chloro-2-methyl-3-((6-oxo-1-(4-(trifluoromethyl)benzyl)-1,6-dihydropyridazin-3-yl)-methyl)-1H-indol-1-yl)acetic acid]
32 | 16 | Cc1c(Cc2ccc(=O)n(Cc3ccc(C(F)(F)F)cc3)n2)c2cc(F)ccc2n1CC(=O)O [Example 82, 2-(5-fluoro-2-methyl-3-((6-oxo-1-(4-(trifluoromethyl)benzyl)-1,6-dihydro-pyridazin-3-yl)methyl)-1H-indol-1-yl)acetic acid]
